Measured values reported in patent US8975417B2, “Pyrazolopyrrolidine derivatives and their use in the treatment of disease” (Novartis AG, priority 2013, dated 2015).

What was measured:
[1] = tested on: THP-1 cells; assay: Cell growth inhibition assay (CellTiter-Glo), THP-1; assay type: cell-based; conditions: Homo sapiens, read-out: THP-1 TGI
Procedure, shortened: (§1)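 Dose-response over 3-fold dilutions from 10 μM; 0.1% DMSO control. Endpoint: CellTiter-Glo ATP signal, background-subtracted and day 0-corrected.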

[2] = target: His-Brd4(44-477) (Homo sapiens (Human), UniProt O60885); assay: TR-FRET in-vitro binding assay for BRD4; conditions: biochemical
Procedure, shortened: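 His-tagged BRD2(60-472), BRD3(20-477) or BRD4(44-477), 45 nM in dispensing solution, with 60 nM tetra-acetylated histone H4 peptide (AcK5/8/12/16) in dispensing solution; HEPES pH 7.5, 50 mM NaCl, 0.1% BSA, 30 °C, 35 min. Eu-anti-His6 antibody plus streptavidin-APC added for TR-FRET read-out; 8-point compound dilutions.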

[3] = tested on: K-562 cells; assay: Cell growth inhibition assay (CellTiter-Glo), K-562; assay type: cell-based, human; conditions: Homo sapiens, K562, read-out: K-562 TGI
Procedure, shortened: as §1

With Cc1cc(N2C(=O)c3nn(C(=O)N(C)C)c(C)c3[C@H]2c2ccc(Cl)cc2)cn2c(C)nnc12 [Example 150, (R)-4-(4-chlorophenyl)-5-(3,8-dimethyl-[1,2,4]triazolo[4,3-a]pyridin-6-yl)-N,N,3-trimethyl-6-oxo-5,6-dihydropyrrolo[3,4-c]pyrazole-2(4H)-carboxamide] as the compound, how does the IC (total growth inhibition) [1] read?
The IC (total growth inhibition) was 0.211 µM.

What about the IC50 [2] of the same compound?
The IC50 was 110 nM.

And the IC (total growth inhibition) [3]?
The IC (total growth inhibition) was over 10 µM.
